# Experimental data reported in US20240316047A1, “INHIBITORS OF RNA HELICASE DHX9 AND USES THEREOF” (ACCENT THERAPEUTICS, INC., priority 2022, published 2024).
# Target: Human recombinant DHX9 protein (Homo sapiens (Human), UniProt Q08211)
# Test: DHX9 ATPase assay (ADP-Glo)
# Type: biochemical
# Settings: for IC50: read-out: DHX9 Biochemical Inflection Point
# Chain of Human recombinant DHX9 protein (Q08211 whole entry): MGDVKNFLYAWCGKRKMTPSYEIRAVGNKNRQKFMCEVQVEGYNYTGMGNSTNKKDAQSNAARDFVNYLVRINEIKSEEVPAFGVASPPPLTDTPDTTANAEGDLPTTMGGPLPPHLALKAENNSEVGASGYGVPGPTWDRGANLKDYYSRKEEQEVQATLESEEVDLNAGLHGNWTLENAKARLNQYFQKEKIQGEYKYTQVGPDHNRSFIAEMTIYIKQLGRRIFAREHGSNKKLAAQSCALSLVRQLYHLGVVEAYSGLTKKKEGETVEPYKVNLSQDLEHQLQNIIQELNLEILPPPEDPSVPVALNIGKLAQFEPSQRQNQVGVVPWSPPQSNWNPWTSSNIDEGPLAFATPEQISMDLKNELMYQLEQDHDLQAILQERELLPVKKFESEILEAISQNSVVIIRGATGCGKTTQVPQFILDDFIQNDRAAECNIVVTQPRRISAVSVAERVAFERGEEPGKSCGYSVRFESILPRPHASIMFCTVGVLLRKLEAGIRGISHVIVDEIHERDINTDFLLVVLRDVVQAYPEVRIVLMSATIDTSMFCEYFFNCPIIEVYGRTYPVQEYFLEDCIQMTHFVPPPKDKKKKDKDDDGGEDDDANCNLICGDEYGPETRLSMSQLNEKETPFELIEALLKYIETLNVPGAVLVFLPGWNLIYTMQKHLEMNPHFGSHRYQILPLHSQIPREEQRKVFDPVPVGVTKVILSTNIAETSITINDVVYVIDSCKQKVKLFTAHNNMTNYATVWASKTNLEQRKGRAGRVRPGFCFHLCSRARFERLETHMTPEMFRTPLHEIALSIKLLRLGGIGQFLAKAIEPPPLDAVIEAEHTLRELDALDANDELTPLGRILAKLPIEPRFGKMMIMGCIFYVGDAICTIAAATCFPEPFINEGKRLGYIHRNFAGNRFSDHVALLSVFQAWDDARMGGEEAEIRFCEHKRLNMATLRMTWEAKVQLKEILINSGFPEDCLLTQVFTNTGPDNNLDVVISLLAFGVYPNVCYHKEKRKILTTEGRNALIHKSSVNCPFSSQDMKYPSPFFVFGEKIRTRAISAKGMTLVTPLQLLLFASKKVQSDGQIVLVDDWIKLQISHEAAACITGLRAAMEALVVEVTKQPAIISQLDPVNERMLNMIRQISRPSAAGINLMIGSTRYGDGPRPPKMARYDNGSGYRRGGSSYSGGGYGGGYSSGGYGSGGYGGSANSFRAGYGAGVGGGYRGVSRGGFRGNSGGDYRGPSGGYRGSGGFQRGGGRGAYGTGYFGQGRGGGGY
DHX9 Biochemical Max Inhibition,IC50,Structure (SMILES)
41.7%,1150 nM,CS(=O)(=O)Nc1cc(Cl)cc(NC(=O)c2cccc(-c3cccc(C#N)c3)c2)c1 [Example 13]
59.6%,353 nM,CS(=O)(=O)Nc1cc(Cl)cc(NC(=O)c2cccc(-c3ccncc3)c2)c1 [Example 14]
46.3%,251 nM,CS(=O)(=O)Nc1cc(I)cc(NC(=O)c2cc(-c3ccccc3)cs2)c1 [Example 16]
61%,8.6 nM,CS(=O)(=O)Nc1cc(Br)cc(NC(=O)c2cc(-c3cnccn3)cs2)c1 [Example 18]
53.5%,115 nM,Cc1cccc(O)c1-c1csc(C(=O)Nc2cc(Br)cc(NS(C)(=O)=O)c2)c1 [Example 19]
62.5%,57.2 nM,Cc1sc(C(=O)Nc2cc(Br)cc(NS(C)(=O)=O)c2)cc1-c1ccccc1O [Example 20]
61.7%,33.2 nM,CS(=O)(=O)Nc1cc(Br)cc(NC(=O)c2cc(-c3ccccc3O)cs2)c1 [Example 21]
71%,2.5 nM,Cc1sc(C(=O)Nc2cc(Cl)cc(NS(C)(=O)=O)c2)cc1-c1ncccn1 [Example 22]
69%,3.2 nM,Cc1sc(C(=O)Nc2cc(Br)cc(NS(C)(=O)=O)c2)cc1-c1ccccn1 [Example 23]
61.3%,5.6 nM,CS(=O)(=O)Nc1cc(Br)cc(NC(=O)c2cc(-c3ncccn3)cs2)c1 [Example 25]
65.6%,1.8 nM,CS(=O)(=O)Nc1cc(Cl)cc(NC(=O)c2cc(-c3ncccn3)cs2)c1 [Example 26]
68%,6.4 nM,CCS(=O)(=O)Nc1cc(Cl)cc(NC(=O)c2cc(-c3ncccn3)c(C)s2)c1 [Example 27]
68.3%,4.2 nM,CCS(=O)(=O)Nc1cc(Cl)cc(NC(=O)c2cc(-c3ccccn3)c(C)s2)c1 [Example 28]
65.2%,48.2 nM,CS(=O)(=O)Nc1cc(Cl)cc(NC(=O)c2cc(-c3ncccc3OCc3ccccc3)cs2)c1 [Example 29]
40.5%,787 nM,CS(=O)(=O)Nc1cc(Br)cc(NC(=O)c2cc(-c3ccccc3OCc3ccccc3)cs2)c1 [Example 30]
56.3%,38.3 nM,CS(=O)(=O)Nc1cc(Br)cc(NC(=O)c2cc(-c3ncccc3OCc3ccccc3)cs2)c1 [Example 32]
61.7%,4.8 nM,Cc1cccnc1-c1csc(C(=O)Nc2cc(Br)cc(NS(C)(=O)=O)c2)c1 [Example 33]
75.2%,6.3 nM,Cc1sc(C(=O)Nc2cc(Cl)cc(NS(C)(=O)=O)c2)cc1-c1ncccc1OCc1ccccc1 [Example 34]
75.7%,3.9 nM,Cc1sc(C(=O)Nc2cc(Cl)cc(NS(C)(=O)=O)c2)cc1-c1ccc(F)cn1 [Example 35]
62.6%,47.9 nM,CS(=O)(=O)Nc1cc(Cl)cc(NC(=O)c2cnn(-c3ccccn3)c2)c1 [Example 37]
44.7%,65.5 nM,CS(=O)(=O)Nc1cc(Br)cc(NC(=O)c2cnn(-c3cc(C#N)ccn3)c2)c1 [Example 38]

DHX9 Biochemical Max Inhibition,IC50,Structure (SMILES)
52.3%,70.1 nM,CS(=O)(=O)Nc1cc(Br)cc(NC(=O)c2cnn(-c3ccc(F)cn3)c2)c1 [Example 39]
60%,15.7 nM,CS(=O)(=O)Nc1cc(Br)cc(NC(=O)c2cnn(-c3cnccn3)c2)c1 [Example 40]
40.3%,47.4 nM,CS(=O)(=O)Nc1cc(Br)cc(NC(=O)c2cnn(-c3ccc(C#N)cn3)c2)c1 [Example 41]
48.7%,18.7 nM,Cc1ccc(-n2cc(C(=O)Nc3cc(Br)cc(NS(C)(=O)=O)c3)cn2)nc1 [Example 42]
49.8%,258 nM,CS(=O)(=O)Nc1cc(Br)cc(NC(=O)c2cnn(-c3ccc(C(F)(F)F)cn3)c2)c1 [Example 43]
60.3%,137 nM,Cc1cccc(C#N)c1-n1cc(C(=O)Nc2cc(Br)cc(NS(C)(=O)=O)c2)cn1 [Example 44]
67.4%,16.4 nM,Cc1cccnc1-n1cc(C(=O)Nc2cc(Br)cc(NS(C)(=O)=O)c2)cc1C [Example 45]
57.2%,47.3 nM,CS(=O)(=O)Nc1cc(Cl)cc(NC(=O)c2cnn(-c3ncccc3C#N)c2)c1 [Example 46]
64.7%,269 nM,CS(=O)(=O)Nc1cc(Cl)cc(NC(=O)c2cnn(-c3ncccc3C(F)(F)F)c2)c1 [Example 47]
54.1%,93.1 nM,CS(=O)(=O)Nc1cc(Br)cc(NC(=O)c2cnn(C3CCCCC3)c2)c1 [Example 48]
58.6%,49.7 nM,Cc1cccnc1-n1cc(C(=O)Nc2cc(Br)cc(NS(C)(=O)=O)c2)cn1 [Example 49]
61.1%,145 nM,CS(=O)(=O)Nc1cc(Br)cc(NC(=O)c2cnn(-c3ccccc3OCc3ccccc3)c2)c1 [Example 51]
37.9%,198 nM,CS(=O)(=O)Nc1cc(Br)cc(NC(=O)c2cnn(-c3cccc(C#N)c3)c2)c1 [Example 52]
52.2%,1910 nM,Cc1ccc(C#N)cc1-n1cc(C(=O)Nc2cc(Br)cc(NS(C)(=O)=O)c2)cn1 [Example 53]
66.6%,65.6 nM,Cc1cccnc1-n1cc(C(=O)Nc2cc(Cl)cc(NS(C)(=O)=O)c2)cn1 [Example 54]
48.6%,9.9 nM,CS(=O)(=O)Nc1cc(Br)cc(NC(=O)c2cnn(-c3ccc(N4CCOCC4)cn3)c2)c1 [Example 55]
48.8%,197 nM,CS(=O)(=O)Nc1cc(Br)cc(NC(=O)c2cnn(-c3cccc(C(F)F)n3)c2)c1 [Example 56]
45.8%,14600 nM,CS(=O)(=O)Nc1cc(Br)cc(NC(=O)c2cnn(-c3cccc(OC(F)F)n3)c2)c1 [Example 57]
44.4%,84.9 nM,CS(=O)(=O)Nc1cc(Br)cc(NC(=O)c2cnn(-c3ccccc3C=O)c2)c1 [Example 58]
77.5%,12.7 nM,Cc1cc(C(=O)Nc2cc(Cl)cc(NS(C)(=O)=O)c2)cn1-c1ncccn1 [Example 59]

Structure (SMILES),DHX9 Biochemical Max Inhibition,IC50
"CS(=O)(=O)Nc1cc(Br)cc(NC(=O)c2cnn(-c3ccccn3)c2)c1 [Example 36, N-(3-bromo-5-(methylsulfonamido)phenyl)-1-(pyridin-2-yl)-1H-pyrazole-4-carboxamide]",56.86%,28 nM
"CS(=O)(=O)Nc1cc(Br)cc(NC(=O)c2cnn(-c3ncccn3)c2)c1 [Example 50, N-(3-bromo-5-(methylsulfonamido)phenyl)-1-(pyrimidin-2-yl)-1H-pyrazole-4-carboxamide]",55.5%,45 nM
